Measured values taken from patent US12077503B2, “Substituted cyclic amides and their use as herbicides” (FMC CORPORATION, priority 2015, dated 2024).

What was measured:
Type in all cases: in vivo
[1] = tested on: barnyardgrass (Echinochloa crus-galli); test: Test G Post-Emergence Protocol; details: Echinochloa crus-galli, post-emergence, 312 h; for pest or weed control at 15.625 g/ha: 15.625 g ai/ha, evaluated after 13 days (100=total damage to plant; 0=no damage to plant), read-out: Barnyardgrass damage rating; for pest or weed control at 62.5 g/ha: 62.5 g ai/ha, read-out: Barnyardgrass damage rating (100=total damage to plant; 0=no damage to plant); for pest or weed control at 62.5 g/ha / pest or weed control at 250 g/ha: evaluated after 13 days; for pest or weed control at 250 g/ha: 250 g ai/ha, read-out: damage to plant, Barnyardgrass (100=total damage to plant; 0=no damage to plant)
Outline: (§1)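 A glasshouse post-emergence test: 8-day-old plants sprayed at 15.625, 62.5 or 250 g/ha, then grown at 24/16 °C day/night with 14 h light and 65% humidity. Damage rated 13 days later, 0–100.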

[2] = tested on: redroot pigweed (Amaranthus retroflexus); test: Test G Post-Emergence Protocol; details: Amaranthus retroflexus, post-emergence, 312 h; for pest or weed control at 15.625 g/ha: 15.625 g ai/ha, evaluated after 13 days (100=total damage to plant; 0=no damage to plant), read-out: Pigweed, Redroot damage rating; for pest or weed control at 62.5 g/ha: 62.5 g ai/ha, read-out: Pigweed, Redroot damage rating (100=total damage to plant; 0=no damage to plant); for pest or weed control at 62.5 g/ha / pest or weed control at 250 g/ha: evaluated after 13 days; for pest or weed control at 250 g/ha: 250 g ai/ha, read-out: damage to plant, Pigweed, Redroot (100=total damage to plant; 0=no damage to plant)
Outline: as §1

corn (Zea mays) [3] = test: Test G Post-Emergence Protocol; details: Zea mays, post-emergence, 312 h; for plant injury at 15.625 g/ha: 15.625 g ai/ha, evaluated after 13 days (100=total damage to plant; 0=no damage to plant), read-out: Corn damage rating; for plant injury at 62.5 g/ha: 62.5 g ai/ha, read-out: Corn damage rating (100=total damage to plant; 0=no damage to plant); for plant injury at 62.5 g/ha / plant injury at 250 g/ha: evaluated after 13 days; for plant injury at 250 g/ha: 250 g ai/ha, read-out: damage to plant, Corn (100=total damage to plant; 0=no damage to plant)
Outline: as §1

[4] = tested on: velvetleaf (Abutilon theophrasti); test: Test G Post-Emergence Protocol; details: Abutilon theophrasti, post-emergence, 312 h; for pest or weed control at 15.625 g/ha: 15.625 g ai/ha, evaluated after 13 days (100=total damage to plant; 0=no damage to plant), read-out: Velvetleaf damage rating; for pest or weed control at 62.5 g/ha: 62.5 g ai/ha, read-out: Velvetleaf damage rating (100=total damage to plant; 0=no damage to plant); for pest or weed control at 62.5 g/ha / pest or weed control at 250 g/ha: evaluated after 13 days; for pest or weed control at 250 g/ha: 250 g ai/ha, read-out: damage to plant, Velvetleaf (100=total damage to plant; 0=no damage to plant)
Outline: as §1

[5] = tested on: giant foxtail (Setaria faberi); test: Test G Post-Emergence Protocol; details: Setaria faberi, post-emergence, 312 h; for pest or weed control at 15.625 g/ha: 15.625 g ai/ha, evaluated after 13 days (100=total damage to plant; 0=no damage to plant), read-out: Foxtail, Giant damage rating; for pest or weed control at 62.5 g/ha: 62.5 g ai/ha, read-out: Foxtail, Giant damage rating (100=total damage to plant; 0=no damage to plant); for pest or weed control at 62.5 g/ha / pest or weed control at 250 g/ha: evaluated after 13 days; for pest or weed control at 250 g/ha: 250 g ai/ha, read-out: damage to plant, Foxtail, Giant (100=total damage to plant; 0=no damage to plant)
Outline: as §1

[6] = tested on: ivy-leaved morning glory (Ipomoea hederacea); test: Test G Post-Emergence Protocol; details: Ipomoea, post-emergence, 312 h; for pest or weed control at 15.625 g/ha: 15.625 g ai/ha, evaluated after 13 days (100=total damage to plant; 0=no damage to plant), read-out: Morningglory, Ivy-leaved damage rating; for pest or weed control at 62.5 g/ha: 62.5 g ai/ha, read-out: Morningglory, Ivy-leaved damage rating (100=total damage to plant; 0=no damage to plant); for pest or weed control at 62.5 g/ha / pest or weed control at 250 g/ha: evaluated after 13 days; for pest or weed control at 250 g/ha: 250 g ai/ha, read-out: damage to plant, Morningglory, Ivy-leaved (100=total damage to plant; 0=no damage to plant)
Outline: as §1

[7] = tested on: barnyardgrass (Echinochloa crus-galli); test: Test G Pre-Emergence Protocol; details: Echinochloa crus-galli, pre-emergence, 312 h, evaluated after 13 days; for pest or weed control at 15.625 g/ha: 15.625 g ai/ha, read-out: Barnyard grass damage rating (100=total damage to plant; 0=no damage to plant); for pest or weed control at 62.5 g/ha: 62.5 g ai/ha, 100=total damage to plant, 0=no damage to plant, read-out: plant damage rating, Barnyardgrass; for pest or weed control at 250 g/ha: 250 g ai/ha, read-out: Barnyardgrass damage rating (100=total damage to plant; 0=no damage to plant)
Outline: (§2)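 Herbicidal effect was rated 13 days post-application on a scale where 100 equals total damage. Spraying took place the day after sowing, using 15.625, 62.5 or 250 g/ha of compound in a 50:50 acetone/water solution with 0.5% Tween 20.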

[8] = tested on: redroot pigweed (Amaranthus retroflexus); test: Test G Pre-Emergence Protocol; details: Amaranthus retroflexus, pre-emergence, 312 h, evaluated after 13 days; for pest or weed control at 15.625 g/ha: 15.625 g ai/ha; for pest or weed control at 15.625 g/ha / pest or weed control at 250 g/ha: read-out: Pigweed, Redroot damage rating (100=total damage to plant; 0=no damage to plant); for pest or weed control at 62.5 g/ha: 62.5 g ai/ha, 100=total damage to plant, 0=no damage to plant, read-out: plant damage rating, Pigweed, Redroot; for pest or weed control at 250 g/ha: 250 g ai/ha
Outline: as §2

corn (Zea mays) [9] = test: Test G Pre-Emergence Protocol; details: Zea mays, pre-emergence, 312 h, evaluated after 13 days; for plant injury at 15.625 g/ha: 15.625 g ai/ha; for plant injury at 15.625 g/ha / plant injury at 250 g/ha: read-out: Corn damage rating (100=total damage to plant; 0=no damage to plant); for plant injury at 62.5 g/ha: 62.5 g ai/ha, 100=total damage to plant, 0=no damage to plant, read-out: plant damage rating, Corn; for plant injury at 250 g/ha: 250 g ai/ha
Outline: as §2

[10] = tested on: velvetleaf (Abutilon theophrasti); test: Test G Pre-Emergence Protocol; details: Abutilon theophrasti, pre-emergence, 312 h, evaluated after 13 days; for pest or weed control at 15.625 g/ha: 15.625 g ai/ha; for pest or weed control at 15.625 g/ha / pest or weed control at 250 g/ha: read-out: Velvetleaf damage rating (100=total damage to plant; 0=no damage to plant); for pest or weed control at 62.5 g/ha: 62.5 g ai/ha, 100=total damage to plant, 0=no damage to plant, read-out: plant damage rating, Velvetleaf; for pest or weed control at 250 g/ha: 250 g ai/ha
Outline: as §2

[11] = tested on: giant foxtail (Setaria faberi); test: Test G Pre-Emergence Protocol; details: Setaria faberi, pre-emergence, 312 h, evaluated after 13 days; for pest or weed control at 15.625 g/ha: 15.625 g ai/ha; for pest or weed control at 15.625 g/ha / pest or weed control at 250 g/ha: read-out: Foxtail, Giant damage rating (100=total damage to plant; 0=no damage to plant); for pest or weed control at 62.5 g/ha: 62.5 g ai/ha, 100=total damage to plant, 0=no damage to plant, read-out: plant damage rating, Foxtail, Giant; for pest or weed control at 250 g/ha: 250 g ai/ha
Outline: as §2

[12] = tested on: ivy-leaved morning glory (Ipomoea hederacea); test: Test G Pre-Emergence Protocol; details: Ipomoea, pre-emergence, 312 h, evaluated after 13 days; for pest or weed control at 15.625 g/ha: 15.625 g ai/ha, read-out: Morning-glory, Ivy-leaved damage rating (100=total damage to plant; 0=no damage to plant); for pest or weed control at 62.5 g/ha: 62.5 g ai/ha, 100=total damage to plant, 0=no damage to plant, read-out: plant damage rating, Morningglory, Ivy-leaved; for pest or weed control at 250 g/ha: 250 g ai/ha, read-out: Morningglory, Ivy-leaved damage rating (100=total damage to plant; 0=no damage to plant)
Outline: as §2

Row | Compound | pest or weed control at 15.625 g/ha [1] [%] | pest or weed control at 62.5 g/ha [1] [%] | pest or weed control at 250 g/ha [1] [%] | pest or weed control at 15.625 g/ha [2] [%] | pest or weed control at 62.5 g/ha [2] [%] | pest or weed control at 250 g/ha [2] [%] | plant injury at 15.625 g/ha (corn (Zea mays) [3]) [%] | plant injury at 62.5 g/ha (corn (Zea mays) [3]) [%] | plant injury at 250 g/ha (corn (Zea mays) [3]) [%] | pest or weed control at 15.625 g/ha [4] [%] | pest or weed control at 62.5 g/ha [4] [%] | pest or weed control at 250 g/ha [4] [%] | pest or weed control at 15.625 g/ha [5] [%] | pest or weed control at 62.5 g/ha [5] [%] | pest or weed control at 250 g/ha [5] [%] | pest or weed control at 15.625 g/ha [6] [%] | pest or weed control at 62.5 g/ha [6] [%] | pest or weed control at 250 g/ha [6] [%] | pest or weed control at 15.625 g/ha [7] [%] | pest or weed control at 62.5 g/ha [7] [%] | other results
1 | CN1C[C@@H](c2ccc(C(F)(F)F)cc2)[C@H](C(=O)Nc2nccc(C(F)(F)F)n2)C1=O (racemic) [Compound 1547] | 0 | 0 | 0 | 0 | 0 | 0 | 0 | 0 | 0 | 0 | 0 | 0 | 0 | 0 | 0 | 0 | 0 | 0 | 0 | 0 | pest or weed control at 250 g/ha [7]: 0%; pest or weed control at 15.625 g/ha [8]: 0%; pest or weed control at 62.5 g/ha [8]: 0%; pest or weed control at 250 g/ha [8]: 0%; plant injury at 15.625 g/ha (corn (Zea mays) [9]): 0%; plant injury at 62.5 g/ha (corn (Zea mays) [9]): 0%; plant injury at 250 g/ha (corn (Zea mays) [9]): 0%; pest or weed control at 15.625 g/ha [10]: 0%; pest or weed control at 62.5 g/ha [10]: 0%; pest or weed control at 250 g/ha [10]: 0%; pest or weed control at 15.625 g/ha [11]: 0%; pest or weed control at 62.5 g/ha [11]: 0%; pest or weed control at 250 g/ha [11]: 0%; pest or weed control at 15.625 g/ha [12]: 0%; pest or weed control at 62.5 g/ha [12]: 0%; pest or weed control at 250 g/ha [12]: 0%
2 | C#Cc1ccccc1NC(=O)[C@H]1C(=O)N(C)C[C@@H]1c1ccc(C(F)(F)F)cc1 (racemic) [Compound 1422] | 0 | 0 | 0 | 0 | 0 | 0 | 10 | 10 | 0 | 0 | 0 | 0 | 0 | 0 | 20 | 0 | 0 | 0 | 0 | 0 | pest or weed control at 250 g/ha [7]: 0%; pest or weed control at 15.625 g/ha [8]: 0%; pest or weed control at 62.5 g/ha [8]: 0%; pest or weed control at 250 g/ha [8]: 0%; plant injury at 15.625 g/ha (corn (Zea mays) [9]): 0%; plant injury at 62.5 g/ha (corn (Zea mays) [9]): 0%; plant injury at 250 g/ha (corn (Zea mays) [9]): 0%; pest or weed control at 15.625 g/ha [10]: 0%; pest or weed control at 62.5 g/ha [10]: 0%; pest or weed control at 250 g/ha [10]: 0%; pest or weed control at 15.625 g/ha [11]: 0%; pest or weed control at 62.5 g/ha [11]: 10%; pest or weed control at 250 g/ha [11]: 50%; pest or weed control at 15.625 g/ha [12]: 0%; pest or weed control at 62.5 g/ha [12]: 0%; pest or weed control at 250 g/ha [12]: 0%
